# Measurements: patent publication US20200270588A1, “GLUCOSYL TRANSFERASE POLYPEPTIDES AND METHODS OF USE” (Syngenta Participations AG, priority 2017, published 2020)
# Values joined by “and” are separate entries in the source; they are usually repeats but may differ in a detail not shown here. Identical values can stand only once.
# Experiments:
# [1] = target: T1, SEQ ID 33, mutant bx-type glucosyl transferase (Zea mays, UniProt Q8W2B7, A285K); experiment: LC/MS glucosyl transferase assay (glucoside peak area), purified enzyme; format: biochemical; settings: about 60 min, ~15 pmol enzyme, relative quantification only
# T1 construct: 33; 1.70E+05; 3.59E+07; 9.27E+06; His tag; made in house
# T1 sequence (Q8W2B7 whole entry A285K): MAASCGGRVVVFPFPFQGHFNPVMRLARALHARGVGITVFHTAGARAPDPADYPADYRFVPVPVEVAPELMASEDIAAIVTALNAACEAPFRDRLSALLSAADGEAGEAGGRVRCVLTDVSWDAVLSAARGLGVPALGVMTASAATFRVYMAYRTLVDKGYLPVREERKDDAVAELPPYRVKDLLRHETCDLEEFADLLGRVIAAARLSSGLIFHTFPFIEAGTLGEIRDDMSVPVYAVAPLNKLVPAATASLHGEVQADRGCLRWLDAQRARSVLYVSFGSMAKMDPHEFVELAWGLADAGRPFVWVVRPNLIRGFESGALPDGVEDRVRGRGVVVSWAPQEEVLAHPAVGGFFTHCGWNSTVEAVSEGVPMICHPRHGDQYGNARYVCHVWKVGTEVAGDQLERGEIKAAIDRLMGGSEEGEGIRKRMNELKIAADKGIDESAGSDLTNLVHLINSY
# Procedure: (§1) In an alternative method for assaying the various enzymes, the test glucosyl transferase enzyme is reacted with substrates exactly as above except that the assay is stopped by adding an equal volume of acetonitrile. Alternatively 50 or 100 μl samples from assay reactions are added to 500 μl ethyl acetate to stop the reaction. In this case samples are then vortexed and 400 μl of the ethyl acetate partition removed, dried down, and resuspended in 100 μl 80:20 acetonitrile/water. The formation of product gluco side and/or disappearance of substrate test herbicide is then monitored directly by LC/MS. Samples are analyzed by LC-MS using an Agilent 1290 liquid chromatography system and Thermo Q-Exactive mass spectrometer. The chromatography is achieved on a Waters Acquity C18 BEH (50×2.1 mm) 1.7 μm particle size column, using a 6 minute gradient run of Water (0.2% formic acid) and Acetonitrile. The Q-Exactive is operated in positive ionisation electrospray mode, using Full scan-AIF mode, at 35,000 resolution, between 100-800 m/z. All analytes are identified from the full scan data to within at least 5 ppm accuracy of their predicted pseudo-molecular ion [M+H]^+ m/z value. In order to obtain quantitative data standard curves are run using herbicides and herbicide glucosides synthesized as standards. Where these synthetic glucosides were not available the LC/MS assay could only be used to provide relative data.
# (§2) DNA sequences, optimized for E. coli codon usage, were cloned, expressed and the various proteins purified and assayed as described in the foregoing examples. Using the UDP assay (as described in examples 1, 3 and 6) the data obtained from the Zea mays bx8 w/t protein and its variants was noisy due to relatively high background rates in DMSO reagent blanks. The values reported in the table 15 were thus monitored by LC/MS as described in example 1.
# [2] = target: T2, SEQ ID 31, mutant bx-type glucosyl transferase (Zea mays, UniProt Q8W2B7, S121V); experiment: as above; format: biochemical; settings: about 60 min, ~15 pmol enzyme, relative quantification only
# T2 construct: 31; nd; 8.84E+06; 5.57E+06; His tag; made in house
# T2 sequence (Q8W2B7 whole entry S121V): as the sequence (Q8W2B7 whole entry A285K) above, with S121V, K285A counted along it
# Procedure: as §1, §2
# [3] = test system: SEQ ID 47, mutant bx-type glucosyl transferase; experiment: as above; format: biochemical; settings: about 60 min, ~15 pmol enzyme, nd = not detectable
# Procedure: as §1, §2
# [4] = test system: transgenic tobacco plants expressing zmBX9 (SEQ ID No 1); experiment: Glass house spray test on tobacco, percent damage; format: in vivo; settings: for percent damage: 14 DAT, tobacco expressing SEQ ID NO 1, lines 6266 and 6291, clonal plants A-E
# Procedure: In the present example, Zea mays BX8 or BX9 or orthologues of BX8/9, for example SEQ ID Nos. 1-59 and various herbicide-active mutations and combinations of mutations thereof (e.g. as listed in Tables 1-9) are expressed in transgenic tobacco. DNA sequences that encode these polypeptides (optimized for tobacco or, optionally, codon optimized according to a target crop such as soybean) are prepared synthetically and obtained commercially from Genewiz (South Plainfield, USA). Each sequence is designed to include a 5′ fusion with TMV omega 5′ leader (SEQ ID NO: 109). The DNA sequences are flanked at the 5′ end with XhoI and at the 3′ end with KpnI to facilitate direct cloning into a suitable binary vector for Agrobacterium-based plant transformation.
# In a particular example, the expression cassette, comprising the TMV omega 5′ leader and a BX encoding gene of interest is excised using XhoI/KpnI and cloned into similarly digested pBIN 19 (Bevan, Nucl. Acids Res. (1984) behind a double enhanced 35S promoter (SEQ ID NO:110) and ahead of a NOS 3′ transcription terminator (SEQ ID NO:111) and then transformed into E. coli DH5 alpha competent cells (see FIG. 5). DNA recovered from the E. coli is used to transform Agrobacterium tumefaciens LBA4404, and the transformed bacteria are selected on media contain rifampicin and kanamycin. Tobacco tissue is subjected to Agrobacterium-mediated transformation using methods well described in the art or as described herein. For example, a master plate of Agrobacterium tumefaciens containing the BX glucosyltransferase expressing binary vector is used to inoculate 10 ml LB (L broth) containing 100 mg/l Rifampicin plus 50 mg/l Kanamycin using a single bacterial colony. This is incubated overnight at 28° C. shaking at 200 rpm. This entire overnight culture is used to inoculate a 50 ml volume of LB containing the same antibiotics. Again this is cultured overnight at 28° C. shaking at 200 rpm. The Agrobacterium cells are pelleted by centrifuging at 3000 rpm for 15 minutes and then resuspended in MS (Murashige and Skoog) medium containing 30 g/l sucrose, pH 5.9 to an OD (600 nM)=0.6. This suspension is dispensed in 25 ml aliquots into petri dishes.
# Once rooted, plantlets are transferred from agar and potted into 50% peat, 50% John Innes Soil No. 3 with slow-release fertilizer in 3 inch round pots and left regularly watered to establish for 8-12d in the glass house. Glass house conditions are about 24-27° C. day; 18-21° C. night and approximately a 14h photoperiod. […]
# Three transgenic populations of about forty tobacco plants and comprising, a glucosyl transferase gene encoding either zmBX8 (SEQ ID NO 2) or zmBX9 (SEQ ID NO 1) were thus produced. […] Plants were assessed for damage and scored at 7 and 14 days after treatment (DAT). […]
SMILES,integrated peak area of beta-glucoside product [1],integrated peak area of beta-glucoside product [2],integrated peak area of beta-glucoside product [3],percent damage ([4]; 500 gai/ha V),"tolerance ([4]; 30 g/ha, several transgenic lines)",percent damage ([4]; 500 gai/ha VI),"tolerance ([4]; high rates, best two events)"
CN1CC(O)N(c2cc(C(F)(F)F)ccn2)C1=O (stereo not shown) [Compound V],9.27E+06 and 9.76E+06,5.57E+06 and 5.59E+06,8.67E+05 and 6.30E+05,100% and 80%,,,
CON1C(=O)N(c2cc(C(F)(F)F)ccn2)C(O)[C@@H]1C (stereo partly shown) [Compound VI],3.59E+07 and 3.45E+07,8.84E+06 and 1.04E+07,1.68E+05 and 1.05E+05,,demonstrate tolerance,95% and 90% and 100% and 60% and 70% and 75% and 80%,only partial tolerance
